Test results from patent US4740499A, “Method of enhancing the bioactivity of atrial peptides” (Monsanto Company, priority 1986, dated 1988).

Legend:
[1] = HPLC analysis of thiorphan after dissolution in NaOH and neutralisation; format: physicochemical; details: dissolved in 0.1 N NaOH, neutralized with 0.5 N HCl, diluted with 0.9% saline
Method: (§1) Thiorphan was dissolved in a minimal amount of 0.1 N NaOH to produce the sodium salt. The solution was immediately neutralized using 0.5 N HCl and diluted to a final concentration with 0.9% saline.

[2] = Plasma AP-III levels (radioimmunoassay) in rats, first test: constant AP-III infusion, varied thiorphan dose; format: in vivo, rat; details: for AP-III Plasma concn. / Increase of plasma AP-III levels over control levels: rat; for AP-III Plasma concn.: AP-III 833 ng/kg/min i.v. infusion; for Increase of plasma AP-III levels over control levels: AP-III 833 ng/kg/min
Method: Plasma levels of atriopeptin III (AP-III) were tested in rats in which the AP-III was infused intravenously both with and without contemporaneous administration of thiorphan.
Male Sprague-Dawley rats, 240-310 g, were used for all tests. The rats were housed in the test facilities for at least 6 days before they were used.
Cannulas were made of PE-10 (polyethylene) tubing inserted and glued into a piece of PE-50 tubing. Rats were anesthetized with pentobarbital (50 mg/kg i.p.) and had cannulas inserted into the left femoral vein and artery. Both were inserted four cm into the vessels and tied securely. They were then tunnelled under the skin and brought out between the rat's shoulder blades and then cut so that only 1-2 cm was externalized. Cannulas were glued in place using Superglue and filled with saline containing 100 units heparin/ml. Rats were allowed to wake up and then housed individually with food and water ad libitum.
Two days after surgery, the rats were weighed and put into restraining cages that allowed limited movement. […] Blood was collected from the femoral artery and replaced with saline containing 10 units heparin/ml. In most tests, 0.3 ml blood was taken, except that when basal AP-III levels were measured 0.4 ml blood was withdrawn. Blood was immediately centrifuged in a microcentrifuge for one minute and plasma was frozen in plastic tubes placed on dry ice. Samples were kept in a -80° C. freezer until they were analyzed.
as §1
After taking the second sample, thiorphan was given as a bolus injection into the femoral artery and the line was flushed with 0.2 ml saline. The doses of thiorphan were 1,3,10 and 30 mg/kg; one set of rats received only a saline bolus as a control. Blood was taken 10,20,30 and 60 minutes after the injection of thiorphan. AP-III was infused during the entire experiment for a total of 90 minutes.
Plasma AP-III levels were analyzed by radioimmunoassay using a second antibody to separate free and bound AP-III. The label was ^125 I-AP-III that was purified by HPLC after iodination. Conditions were set so that 35-40% of the total counts were precipitated. The incubation medium contained sodium phosphate, pH 7.4, 0.25% bovine serum albumin (BSA), 0.5% sodium azide and 3% PEG-8000 (polyethylene glycol). The primary antibody was from a guinea pig immunized against AP-III. The incubations were done overnight at 6° C. The next day, 2 ml of 0.125% BSA was added to each tube and then they were centrifuged for 45 min at 3000 rpm. They were decanted and the radioactivity was counted in a Micromedic gamma counter. The standard curve contained 10 to 600 pg AP-III/tube. Only the linear portion of the curve was used for quantification. Plasma samples were diluted so that the AP-III concentrations were in the range of the standard curve.

## O=C(O)CNC(=O)C(CS)Cc1ccccc1 (racemic) [thiorphan, N-(DL-2-benzyl-3-mercapto-propionyl)glycine]
[1]
  Degradation due to method of dissolution (HPLC analysis): no apparent degradation
[2]; thiorphan 1 mg/kg arterial bolus after 30 min sample, 40 min (10 min after thiorphan)
  AP-III Plasma concn.: 23.2 ± 3.1 ng/mL
[2]; thiorphan 1 mg/kg arterial bolus after 30 min sample, 50 min (20 min after thiorphan)
  AP-III Plasma concn.: 22.2 ± 3.9 ng/mL
[2]; thiorphan 1 mg/kg arterial bolus after 30 min sample, 60 min (30 min after thiorphan)
  AP-III Plasma concn.: 18.7 ± 2.2 ng/mL
[2]; thiorphan 1 mg/kg arterial bolus after 30 min sample, 90 min (60 min after thiorphan)
  AP-III Plasma concn.: 15.3 ± 3.9 ng/mL
[2]; thiorphan 3 mg/kg arterial bolus after 30 min sample, 40 min (10 min after thiorphan)
  AP-III Plasma concn.: 26.7 ± 3.5 ng/mL
[2]; thiorphan 3 mg/kg arterial bolus after 30 min sample, 50 min (20 min after thiorphan)
  AP-III Plasma concn.: 29.5 ± 4.0 ng/mL
[2]; thiorphan 3 mg/kg arterial bolus after 30 min sample, 60 min (30 min after thiorphan)
  AP-III Plasma concn.: 28.9 ± 5.6 ng/mL
[2]; thiorphan 3 mg/kg arterial bolus after 30 min sample, 90 min (60 min after thiorphan)
  AP-III Plasma concn.: 21.2 ± 3.9 ng/mL
[2]; thiorphan 10 mg/kg arterial bolus after 30 min sample, 40 min (10 min after thiorphan)
  AP-III Plasma concn.: 24.7 ± 2.7 ng/mL
[2]; thiorphan 10 mg/kg arterial bolus after 30 min sample, 50 min (20 min after thiorphan)
  AP-III Plasma concn.: 29.2 ± 3.1 ng/mL
[2]; thiorphan 10 mg/kg arterial bolus after 30 min sample, 60 min (30 min after thiorphan)
  AP-III Plasma concn.: 30.2 ± 4.8 ng/mL
[2]; thiorphan 10 mg/kg arterial bolus after 30 min sample, 90 min (60 min after thiorphan)
  AP-III Plasma concn.: 25.5 ± 5.5 ng/mL
[2]; thiorphan 30 mg/kg arterial bolus after 30 min sample, 40 min (10 min after thiorphan)
  AP-III Plasma concn.: 22.5 ± 2.7 ng/mL
[2]; thiorphan 30 mg/kg arterial bolus after 30 min sample, 50 min (20 min after thiorphan)
  AP-III Plasma concn.: 28.8 ± 5.6 ng/mL
[2]; thiorphan 30 mg/kg arterial bolus after 30 min sample, 60 min (30 min after thiorphan)
  AP-III Plasma concn.: 30.7 ± 6.0 ng/mL
[2]; thiorphan 30 mg/kg arterial bolus after 30 min sample, 90 min (60 min after thiorphan)
  AP-III Plasma concn.: 31.3 ± 7.8 ng/mL
[2]; later times after thiorphan
  Increase of plasma AP-III levels over control levels: 3 fold
[2]; ten minutes after injecting thiorphan
  Increase of plasma AP-III levels over control levels: at least 2 fold
[2]; rats, thiorphan 1-30 mg/kg of body weight
  Increase of AP-III levels upon intravenous infusion: at least two-fold
[2]; thiorphan 1 mg/kg, all but the last time point
  Plasma AP-III concentrations vs control, analysis of variance: statistically different from control levels
[2]; thiorphan 3, 10 and 30 mg/kg, all time points after thiorphan
  Plasma AP-III concentrations vs control, analysis of variance: statistically different from control levels
